For the assay, the target named is BRD4-BD1 (44-164) (Homo sapiens (Human), UniProt O60885). The assay can be described thus: Alphascreen binding assay BRD4-BD1. The following applies: BRD4(1) H4; read-out: Biochemical activity (IC50 μM) BRD4(1) H4. How it is done: Binding of compounds of formula (I) with bromodomain 2, 3 4 was assessed using Alphascreen binding assay. The inhibition of the interaction between bromodomain and its acetylated target protein (Filippakopoulos P et al. 2012) was measured quantitatively using recombinant BRD proteins, an acetylated Histone 4 peptide and AlphaScreen™ technology. In absence of inhibition the BRD protein bound to AlphaScreen™ nickel chelate acceptor beads can interact with the acetylated Histone 4 peptide which is immobilized by the AlphaScreen™ Streptavidin coated beads. This interaction brings donor and acceptor beads in proximity. The close proximity allows the singlet oxygen produced by laser excitation of the donor beads to reach the acceptor beads and generate a luminescence signal.
Recombinant human bromodomains containing the N-terminal bromodomain (BRD2-BD1 (71-194), BRD3-BD1 (24-144) and BRD4-BD1 (44-164)) or dual bromodomains (BRD4-BD12 (1-477), BRD4-BD12 (1-472)) were prepared and purified as described in protein expression and purification session. The peptide is human Histone H41-21K5AcK8AcK12AcK16Ac-Biotin (Anaspec CA, USA).
Protocol for BRD2, BRD3 and BRD4 assay: All components are prepared in buffer composed of 50 mM HEPES pH 7.5, 100 mM NaCl, 0.01% bovine serum albumin (“BSA”), 0.01% Triton X-100, 2 mM dithiothreitol (“DTT”). 7 μL of Bromodomain protein and 7 μL of peptide are added to wells containing 1 μL of various concentrations of test compounds of formula (I) or DMSO vehicle in an Alphaplate (PerkinElmer GA, USA) and incubated for 1 hour at room temperature. 4 μL donor and acceptor bead mixture is then added with final concentrations of 7.5 μg/ml. 30 minutes after bead addition, Alpha signal is read on the Envision spectrometer (λEx 680 nm, λEm 520-620 nm). Final concentrations of bromodomain proteins and peptide are as shown below.
All data was normalized to the mean of 16 high and 16 low control wells on each plate. A four parameter curve fit of the following formula was then applied: Y=a+(b−a)/(1+(x/c)^d) Where ‘a’ is the minimum, ‘b’ is the maximum, ‘c’ is the pIC50 and ‘d’ is the Hill slope. Protein Expression and Purification
Recombinant human bromodomains containing the N-terminal bromodomain (BRD2-BD1 (71-194), BRD3-BD1 (24-144) and BRD4-BD1 (44-164)) or dual bromodomains (BRD4-BD12 (1-477), BRD4-BD12 (1-472)) were expressed in E. coli cells (in a modified pET vector) with an N-terminal six-His tag and purified using a combination of both IMAC (Ni-affinity) and size exclusion chromatography steps.
Recombinant BRD proteins were expressed using the E. coli strain BL21-CodonPlus (DE3) (Agilent Technologies CA, USA). Cells were grown in Terrific Broth (TB) media to an OD600 of 1.2 at 37° C. at which temperature was reduced to 25° C., protein was induced with 1.0 mM ispropyl-β-D-thiogalactopyranoside (“IPTG”) for 12-18 hours and harvested by centrifugation at 8000×g for 20 minutes. Cells were re-suspended in 0.1M K2PO4 pH 8.0, 250 mM NaCl, 10% Glycerol, 0.75% NP-40, 25 mM Imidazole, 5 mM beta-mercaptoethanol (“BME”) with 0.2 mg/ml Lysosyme, 2.0 mM phenylmethanesulfonyl fluoride (“PMSF”), 25 μg/ml DNAse I, incubated on ice for 30 minutes and lyzed with a cell disruptor (MicroFluidics MA, USA). The lysate was clarified by centrifugation at 20,000×g for 2 hours. The protein was captured with Ni-NTA resin (Life Technologies, USA). Contaminating proteins were washed off with 25 mM Tris-HCl pH 8.3, 250 mM NaCl, 12% Glycerol and 50 mM Imidazole. Following 3× wash steps, protein was eluted step wise using a 50 mM HEPES pH 7.5, 500 mM NaCl and 400 mM Imidazole. The protein was further purified using Gel Filtration column 26/600 Superdex 200 (GE Biosciences NJ, USA) in 50 mM HEPES pH 7.5, 250 mM NaCl. The protein was aliquoted and flash-frozen in liquid Nitrogen.

Structures are written as SMILES.

The term IC50 denotes the concentration needed to halve the response being measured.

With `CCc1[nH]c2ncc(-c3c(C)noc3C)cc2c1C(O)C1CCC(F)(F)CC1` (stereo not drawn) [P-0044, (4,4-difluorocyclohexyl)-[5-(3,5-dimethylisoxazol-4-yl)-2-ethyl-1H-pyrrolo[2,3-b]pyridin-3-yl]methanol], the IC50 is below 1 µM.
`CCc1[nH]c2ncc(-c3c(C)noc3C)cc2c1C(OC)C1CCC(F)(F)CC1` (stereo not drawn) [P-0045, 4-[3-[(4,4-difluorocyclohexyl)-methoxy-methyl]-2-ethyl-1H-pyrrolo[2,3-b]pyridin-5-yl]-3,5-dimethyl-isoxazole]: the 50% inhibitory concentration (IC50) was below 1 µM.
As to `Cc1noc(C)c1-c1cnc2[nH]cc(Cc3ccccc3OC(F)F)c2c1` [P-0047, 4-[3-[[2-(difluoro-methoxy)phenyl]methyl]-1H-pyrrolo[2,3-b]pyridin-5-yl]-3,5-dimethyl-isoxazole], the IC50 is below 1 µM.
Regarding `Cc1noc(C)c1-c1cnc2[nH]cc(Cc3cccc4c3OC(F)(F)O4)c2c1` [P-0048, 4-[3-[(2,2-difluoro-1,3-benzodioxol-4-yl)methyl]-1H-pyrrolo[2,3-b]pyridin-5-yl]-3,5-dimethyl-isoxazole], the IC50 is below 1 µM.
For `CCc1[nH]c2ncc(-c3c(C)noc3C)cc2c1Cc1ccccc1Cl` [P-0049, 4-[3-[(2-chlorophenyl)methyl]-2-ethyl-1H-pyrrolo[2,3-b]pyridin-5-yl]-3,5-dimethyl-isoxazole] the value was below 1 µM.
As for `CCc1[nH]c2ncc(-c3c(C)noc3C)cc2c1CC1CCC(F)(F)CC1` [P-0051, 4-[3-[(4,4-difluoro-cyclohexyl)methyl]-2-ethyl-1H-pyrrolo[2,3-b]pyridin-5-yl]-3,5-dimethyl-isoxazole], the IC50 was below 1 µM.
As for `Cc1noc(C)c1-c1cnc2ccn(S(=O)(=O)c3ccccc3F)c2c1` [P-0060, 4-[1-(2-fluorophenyl)sulfonylpyrrolo[3,2-b]pyridin-6-yl]-3,5-dimethyl-isoxazole], the IC50 is below 1 µM.
Turning to `Cc1ccc(S(=O)(=O)n2ccc3ncc(-c4c(C)noc4C)cc32)s1` [P-0062, 3,5-dimethyl-4-[1-[(5-methyl-2-thienyl)sulfonyl]pyrrolo[3,2-b]pyridin-6-yl]isoxazole], the IC50 is below 1 µM.
For `Cc1noc(C)c1-c1cnc2[nH]cc(C(C)(C)c3ccc(F)cc3)c2c1` [P-0063, 4-[3-[1-(4-fluorophenyl)-1-methyl-ethyl]-1H-pyrrolo[2,3-b]pyridin-5-yl]-3,5-dimethyl-isoxazole], the IC50 is below 1 µM.
Turning to `Cc1noc(C)c1-c1cnc2[nH]cc(C(c3ccc(F)cc3)C3CC3)c2c1` (stereo not drawn) [P-0064, 4-[3-[cyclopropyl-(4-fluorophenyl)methyl]-1H-pyrrolo[2,3-b]pyridin-5-yl]-3,5-dimethyl-isoxazole], the IC50 was below 1 µM.
Next, `Cc1noc(C)c1-c1cnc2ccn(S(=O)(=O)C3CCCCC3)c2c1` [P-0066, 4-(1-cyclohexylsulfonyl-pyrrolo[3,2-b]pyridin-6-yl)-3,5-dimethyl-isoxazole]: below 1 µM.
For the compound `Cc1noc(C)c1-c1cnc2ccn(S(=O)(=O)N3CCCCC3)c2c1` [P-0067, 3,5-dimethyl-4-[1-(1-piperidylsulfonyl)pyrrolo[3,2-b]pyridin-6-yl]isoxazole], the IC50 was below 1 µM.
As to `COC(c1cn(S(=O)(=O)C2CCCCC2)c2cc(-c3c(C)noc3C)cnc12)C1CC1` (stereo not drawn) [P-0071, 4-[1-cyclohexyl-sulfonyl-3-[cyclopropyl(methoxy)methyl]pyrrolo[3,2-b]pyridin-6-yl]-3,5-dimethyl-isoxazole], the IC50 is below 1 µM.
On to `COC(c1c[nH]c2ncc(-c3c(C)noc3C)cc12)C1CCC(F)(F)CC1` (stereo not drawn) [P-0073, 4-[3-[(4,4-difluorocyclohexyl)-methoxy-methyl]-1H-pyrrolo[2,3-b]pyridin-5-yl]-3,5-dimethyl-isoxazole], for which the IC50 is below 1 µM.
Consider `Cc1noc(C)c1-c1cnc2c(CC3CC3)cn(S(=O)(=O)C3CCCCC3)c2c1` [P-0075, 4-[1-cyclohexylsulfonyl-3-(cyclopropylmethyl)pyrrolo[3,2-b]pyridin-6-yl]-3,5-dimethyl-isoxazole], for which the IC50 is below 1 µM.

The values above are taken from patent US10519177B2, “Heterocyclic compounds and uses thereof” (Plexxikon Inc., priority 2013, dated 2019).
